US9738902B2, “Modified PYR/PYL receptors activated by ligands” (priority 2013, dated 2017)

Legend:
PYR1 K59R V164H = target: T1, PYR1 K59R V164H (Arabidopsis thaliana, UniProt O49686, K59R/V164H); experiment: Y2H Pocket Library Screen (HAB1, X-gal); assay type: cell-based
T1 construct: expressed in transfected cells; host or cells: S. cerevisiae Y190
How it was run: (§1)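 PYR1 mutant bait plasmids were co-transformed with pACT-HAB1 into yeast Y190 and spotted on selective synthetic dextrose (–Leu/–Trp) agar containing one test compound at 100 μM. After two days at 30° C, colonies were chloroform-lysed and X-gal stained for β-galactosidase reporter expression.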

PYR1 K59R I110M = target: T2, PYR1 K59R I110M (Arabidopsis thaliana, UniProt O49686, I110M/K59R); experiment: Y2H Pocket Library Screen (HAB1, X-gal); assay type: cell-based
T2 construct: expressed in transfected cells; host or cells: S. cerevisiae Y190 two-hybrid reporter strain
How it was run: as §1

PYR1 K59R M158A = target: T3, PYR1 K59R M158A (Arabidopsis thaliana, UniProt O49686, K59R/M158A); experiment: Y2H Pocket Library Screen (HAB1, X-gal); assay type: cell-based
T3 construct: expressed in transfected cells; host or cells: S. cerevisiae Y190 two-hybrid reporter strain
How it was run: as §1

PYR1 K59R M158I = target: T4, PYR1 K59R M158I (Arabidopsis thaliana, UniProt O49686, K59R/M158I); experiment: Y2H Pocket Library Screen (HAB1, X-gal); assay type: cell-based
T4 construct: expressed in transfected cells; host or cells: S. cerevisiae Y190 two-hybrid reporter strain
How it was run: as §1

PYR1 K59R V164E = target: T5, PYR1 K59R V164E (Arabidopsis thaliana, UniProt O49686, K59R/V164E); experiment: Y2H Pocket Library Screen (HAB1, X-gal); assay type: cell-based
T5 construct: expressed in transfected cells; host or cells: S. cerevisiae Y190
How it was run: as §1

PYR1 K59R T162Y = target: T6, PYR1 K59R T162Y (Arabidopsis thaliana, UniProt O49686, K59R/T162Y); experiment: Y2H Pocket Library Screen (HAB1, X-gal); assay type: cell-based
T6 construct: expressed in transfected cells; host or cells: S. cerevisiae Y190
How it was run: as §1

PYR1 K59R A160I = target: T7, PYR1 K59R A160I (Arabidopsis thaliana, UniProt O49686, A160I/K59R); experiment: Y2H Pocket Library Screen (HAB1, X-gal); assay type: cell-based
T7 construct: expressed in transfected cells; host or cells: S. cerevisiae Y190
How it was run: as §1

PYR1 K59R V164C = target: T8, PYR1 K59R V164C (Arabidopsis thaliana, UniProt O49686, K59R/V164C); experiment: Y2H Pocket Library Screen (HAB1, X-gal); assay type: cell-based
T8 construct: expressed in transfected cells; host or cells: S. cerevisiae Y190
How it was run: as §1

PYR1 K59R M158V = target: T9, PYR1 K59R M158V (Arabidopsis thaliana, UniProt O49686, K59R/M158V); experiment: Y2H Pocket Library Screen (HAB1, X-gal); assay type: cell-based
T9 construct: expressed in transfected cells; host or cells: S. cerevisiae Y190 two-hybrid reporter strain
How it was run: as §1

PYR1 K59R M158S = target: T10, PYR1 K59R M158S (Arabidopsis thaliana, UniProt O49686, K59R/M158S); experiment: Y2H Pocket Library Screen (HAB1, X-gal); assay type: cell-based
T10 construct: expressed in transfected cells; host or cells: S. cerevisiae Y190 two-hybrid reporter strain
How it was run: as §1

PYR1 K59R A160S = target: T11, PYR1 K59R A160S (Arabidopsis thaliana, UniProt O49686, A160S/K59R); experiment: Y2H Pocket Library Screen (HAB1, X-gal); assay type: cell-based
T11 construct: expressed in transfected cells; host or cells: S. cerevisiae Y190
How it was run: as §1

PYR1 K59R M158L = target: T12, PYR1 K59R M158L (Arabidopsis thaliana, UniProt O49686, K59R/M158L); experiment: Y2H Pocket Library Screen (HAB1, X-gal); assay type: cell-based
T12 construct: expressed in transfected cells; host or cells: S. cerevisiae Y190 two-hybrid reporter strain
How it was run: as §1

PYR1 K59R E141Q = target: T13, PYR1 K59R E141Q (Arabidopsis thaliana, UniProt O49686, E141Q/K59R); experiment: Y2H Pocket Library Screen (HAB1, X-gal); assay type: cell-based
T13 construct: expressed in transfected cells; host or cells: S. cerevisiae Y190 two-hybrid reporter strain
How it was run: as §1

PYR1 K59R V164A = target: T14, PYR1 K59R V164A (Arabidopsis thaliana, UniProt O49686, K59R/V164A); experiment: Y2H Pocket Library Screen (HAB1, X-gal); assay type: cell-based
T14 construct: expressed in transfected cells; host or cells: S. cerevisiae Y190
How it was run: as §1

PYR1 K59R V164Y = target: T15, PYR1 K59R V164Y (Arabidopsis thaliana, UniProt O49686, K59R/V164Y); experiment: Y2H Pocket Library Screen (HAB1, X-gal); assay type: cell-based
T15 construct: expressed in transfected cells; host or cells: S. cerevisiae Y190 two-hybrid reporter strain
How it was run: as §1

PYR1 K59R N167T = target: T16, PYR1 K59R N167T (Arabidopsis thaliana, UniProt O49686, K59R/N167T); experiment: Y2H Pocket Library Screen (HAB1, X-gal); assay type: cell-based
T16 construct: expressed in transfected cells; host or cells: S. cerevisiae Y190 two-hybrid reporter strain
How it was run: as §1

[1] = target: T17, GST-ABI1 with 6×-His-PYR1^MANDI (Arabidopsis thaliana, UniProt O49686, F108A/F159L/K59R/S122G/V81I/Y58H); experiment: PP2C enzyme inhibition assay (4-methylumbelliferyl-phosphate); assay type: biochemical; details: 100 nM 6×-His-PYR1^MANDI, 50 nM GST-PP2C; read-out: IC50, mandipropamid mediated inhibition of ABI1
T17 construct: made in house; host or cells: E. coli BL21[DE3]pLysS (receptor)
Procedure: We next characterized the effects of recombinant PYR1^MANDI on PP2C activity using the fluorogenic substrate 4-methylumbelliferyl-phosphate. Recombinant receptor and PP2C proteins were prepared as described above and used to examine PP2C inactivation in response to mandipropamid or ABA. Enzyme inhibition assays were conducted using the following assay conditions: 100 nM 6×-His-PYR1^MANDI, 50 nM GST-PP2C, 100 mM Tris-OAc (pH 7.9), 100 mM NaCl, 1 mM MnCl2, 1% β-mercaptoethanol. […] The three ABA-regulated clade A PP2Cs, GST-HAB1, GST-ABI1 and GST-ABI2 were each tested under the same enzyme conditions in separate reactions. The assays were conducted at a variety of mandipropamid or ABA concentrations so that IC50 values could be determined. […] Thus, the PYR1^MANDI receptor is highly sensitive to activation by mandipropamid and interacts with multiple clade A PP2Cs in response to mandipropamid. This high level of sensitivity is consistent with the yeast two hybrid results described above in which a detectable interaction between PYR1^MANDI and HAB1 could be observed at concentrations as low as 2 nM (see Table 1). We note that the yeast two hybrid reporter systems requires only a small percentage of PYR1^MANDI receptors to bind HAB1 for an interaction signal and is therefore a potentially more sensitive indicator than in vitro assays. […] Thus these in vitro assays confirm that PYR1^MANDI is selectively activated by mandipropamid.

PYR1 K59R F108I = target: T18, PYR1 K59R F108I (Arabidopsis thaliana, UniProt O49686, F108I/K59R); experiment: Y2H Pocket Library Screen (HAB1, X-gal); assay type: cell-based
T18 construct: expressed in transfected cells; host or cells: S. cerevisiae Y190 yeast two-hybrid reporter strain
How it was run: as §1

PYR1 K59R F108G = target: T19, PYR1 K59R F108G (Arabidopsis thaliana, UniProt O49686, F108G/K59R); experiment: Y2H Pocket Library Screen (HAB1, X-gal); assay type: cell-based
T19 construct: expressed in transfected cells; host or cells: S. cerevisiae Y190 yeast two-hybrid reporter strain
How it was run: as §1

PYR1 K59R F108Q = target: T20, PYR1 K59R F108Q (Arabidopsis thaliana, UniProt O49686, F108Q/K59R); experiment: Y2H Pocket Library Screen (HAB1, X-gal); assay type: cell-based
T20 construct: expressed in transfected cells; host or cells: S. cerevisiae Y190 yeast two-hybrid reporter strain
How it was run: as §1

T1 sequence (O49686 whole entry K59R/V164H): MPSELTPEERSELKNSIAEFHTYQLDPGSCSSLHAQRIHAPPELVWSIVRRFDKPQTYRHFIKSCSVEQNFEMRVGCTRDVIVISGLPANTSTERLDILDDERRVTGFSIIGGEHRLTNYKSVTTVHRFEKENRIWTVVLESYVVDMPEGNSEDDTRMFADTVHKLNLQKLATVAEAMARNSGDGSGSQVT
T1 sequence (Q9CAJ0 23-511 partner): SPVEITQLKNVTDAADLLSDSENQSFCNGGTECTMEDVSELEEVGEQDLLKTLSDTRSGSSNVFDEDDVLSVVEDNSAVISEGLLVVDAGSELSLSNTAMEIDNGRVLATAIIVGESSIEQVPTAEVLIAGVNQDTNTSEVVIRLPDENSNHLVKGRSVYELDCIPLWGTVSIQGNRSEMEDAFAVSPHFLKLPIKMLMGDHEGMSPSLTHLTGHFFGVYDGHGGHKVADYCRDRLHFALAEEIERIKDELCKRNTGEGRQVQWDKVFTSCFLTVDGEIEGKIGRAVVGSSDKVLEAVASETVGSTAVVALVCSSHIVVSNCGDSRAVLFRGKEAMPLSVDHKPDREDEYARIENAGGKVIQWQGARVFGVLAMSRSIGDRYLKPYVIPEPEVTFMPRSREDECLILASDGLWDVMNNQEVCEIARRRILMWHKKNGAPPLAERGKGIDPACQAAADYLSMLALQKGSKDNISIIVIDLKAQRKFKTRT
T9 sequence (O49686 whole entry K59R/M158V): as the sequence (O49686 whole entry K59R/V164H) above, with M158V, H164V counted along it
T9 sequence (Q9CAJ0 23-511, further chain): as the sequence (Q9CAJ0 23-511 partner) above
T13 sequence (O49686 whole entry K59R/E141Q): as the sequence (O49686 whole entry K59R/V164H) above, with E141Q, H164V counted along it
T13 sequence (Q9CAJ0 23-511 partner): as the sequence (Q9CAJ0 23-511 partner) above
T4 sequence (O49686 whole entry K59R/M158I): as the sequence (O49686 whole entry K59R/V164H) above, with M158I, H164V counted along it
T4 sequence (Q9CAJ0 23-511, further chain): as the sequence (Q9CAJ0 23-511 partner) above
T6 sequence (Q9CAJ0 23-511): as the sequence (Q9CAJ0 23-511 partner) above
T6 sequence (O49686 whole entry K59R/T162Y): as the sequence (O49686 whole entry K59R/V164H) above, with T162Y, H164V counted along it
T8 sequence (Q9CAJ0 23-511, stated change not applied): as the sequence (Q9CAJ0 23-511 partner) above
T8 sequence (O49686 whole entry K59R/V164C): as the sequence (O49686 whole entry K59R/V164H) above, with H164C counted along it
T17 sequence (O49686 whole entry Y58H/K59R/V81I/F108A/S122G/F159L): as the sequence (O49686 whole entry K59R/V164H) above, with Y58H, V81I, F108A, S122G, F159L, H164V counted along it
T17 sequence (P49597 whole entry partner): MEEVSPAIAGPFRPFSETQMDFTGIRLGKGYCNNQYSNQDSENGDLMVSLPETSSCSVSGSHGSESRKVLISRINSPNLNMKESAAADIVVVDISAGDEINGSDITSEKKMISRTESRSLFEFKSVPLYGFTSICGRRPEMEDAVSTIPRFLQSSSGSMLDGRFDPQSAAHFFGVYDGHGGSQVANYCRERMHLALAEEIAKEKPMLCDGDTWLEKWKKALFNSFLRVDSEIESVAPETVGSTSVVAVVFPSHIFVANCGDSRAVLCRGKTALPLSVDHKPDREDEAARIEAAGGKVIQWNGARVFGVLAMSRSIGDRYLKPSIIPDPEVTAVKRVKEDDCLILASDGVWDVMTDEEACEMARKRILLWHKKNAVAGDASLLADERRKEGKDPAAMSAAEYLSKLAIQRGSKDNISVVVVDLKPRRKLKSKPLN
T5 sequence (O49686 whole entry K59R/V164E): as the sequence (O49686 whole entry K59R/V164H) above, with H164E counted along it
T5 sequence (Q9CAJ0 23-511 partner): as the sequence (Q9CAJ0 23-511 partner) above
T10 sequence (O49686 whole entry K59R/M158S): as the sequence (O49686 whole entry K59R/V164H) above, with M158S, H164V counted along it
T10 sequence (Q9CAJ0 23-511 partner): as the sequence (Q9CAJ0 23-511 partner) above
T3 sequence (O49686 whole entry K59R/M158A): as the sequence (O49686 whole entry K59R/V164H) above, with M158A, H164V counted along it
T3 sequence (Q9CAJ0 23-511 partner): as the sequence (Q9CAJ0 23-511 partner) above
T18 sequence (O49686 whole entry K59R/F108I): as the sequence (O49686 whole entry K59R/V164H) above, with F108I, H164V counted along it
T18 sequence (Q9CAJ0 23-511 partner): as the sequence (Q9CAJ0 23-511 partner) above
T11 sequence (O49686 whole entry K59R/A160S): as the sequence (O49686 whole entry K59R/V164H) above, with A160S, H164V counted along it
T11 sequence (Q9CAJ0 23-511 partner): as the sequence (Q9CAJ0 23-511 partner) above
T20 sequence (O49686 whole entry K59R/F108Q): as the sequence (O49686 whole entry K59R/V164H) above, with F108Q, H164V counted along it
T20 sequence (Q9CAJ0 23-511 partner): as the sequence (Q9CAJ0 23-511 partner) above
T7 sequence (O49686 whole entry K59R/A160I): as the sequence (O49686 whole entry K59R/V164H) above, with A160I, H164V counted along it
T7 sequence (Q9CAJ0 23-511 partner): as the sequence (Q9CAJ0 23-511 partner) above
T2 sequence (O49686 whole entry K59R/I110M): as the sequence (O49686 whole entry K59R/V164H) above, with I110M, H164V counted along it
T2 sequence (Q9CAJ0 23-511 partner): as the sequence (Q9CAJ0 23-511 partner) above
T14 sequence (O49686 whole entry K59R/V164A): as the sequence (O49686 whole entry K59R/V164H) above, with H164A counted along it
T14 sequence (Q9CAJ0 23-511 partner): as the sequence (Q9CAJ0 23-511 partner) above
T12 sequence (O49686 whole entry K59R/M158L): as the sequence (O49686 whole entry K59R/V164H) above, with M158L, H164V counted along it
T12 sequence (Q9CAJ0 23-511 partner): as the sequence (Q9CAJ0 23-511 partner) above
T15 sequence (O49686 whole entry K59R/V164Y): as the sequence (O49686 whole entry K59R/V164H) above, with H164Y counted along it
T15 sequence (Q9CAJ0 23-511, stated change not applied, further chain): as the sequence (Q9CAJ0 23-511 partner) above
T16 sequence (O49686 whole entry K59R/N167T): as the sequence (O49686 whole entry K59R/V164H) above, with H164V, N167T counted along it
T16 sequence (Q9CAJ0 23-511 partner): as the sequence (Q9CAJ0 23-511 partner) above
T19 sequence (O49686 whole entry K59R/F108G): as the sequence (O49686 whole entry K59R/V164H) above, with F108G, H164V counted along it
T19 sequence (Q9CAJ0 23-511 partner): as the sequence (Q9CAJ0 23-511 partner) above

| Structure (SMILES) | Threshold (PYR1 K59R V164H) [µM] | Threshold (PYR1 K59R I110M) [µM] | Threshold (PYR1 K59R M158A) [µM] | Threshold (PYR1 K59R M158I) [µM] | Threshold (PYR1 K59R V164E) [µM] | Threshold (PYR1 K59R T162Y) [µM] | Threshold (PYR1 K59R A160I) [µM] | Threshold (PYR1 K59R V164C) [µM] | Threshold (PYR1 K59R M158V) [µM] | Threshold (PYR1 K59R M158S) [µM] | Threshold (PYR1 K59R A160S) [µM] | Threshold (PYR1 K59R M158L) [µM] | Threshold (PYR1 K59R E141Q) [µM] | Threshold (PYR1 K59R V164A) [µM] | Threshold (PYR1 K59R V164Y) [µM] | Threshold (PYR1 K59R N167T) [µM] | IC50 [1] [nM] | Threshold (PYR1 K59R F108I) [µM] | Threshold (PYR1 K59R F108G) [µM] | Threshold (PYR1 K59R F108Q) [µM] |
| --- | --- | --- | --- | --- | --- | --- | --- | --- | --- | --- | --- | --- | --- | --- | --- | --- | --- | --- | --- | --- |
| N#Cc1c(Cl)cccc1Cl [Dichlobenil, dichlobenil] | 100 | 100 | 100 | 100 | 100 | 100 | 100 | 100 | 100 | 100 | 100 | 100 | 100 | 100 | 100 | 100 |  |  |  |  |
| C#CCOc1ccc(CCNC(=O)C(OCC#C)c2ccc(Cl)cc2)cc1OC (centres unmarked) [Mandipropamid, mandipropamid] |  |  |  |  |  |  |  |  |  |  |  |  |  |  |  |  | 26.8 | 100 | 100 | 100 |
